This is an account of results in ChEMBL document CHEMBL3046372, “Design, Synthesis and Growth Inhibition Activity of Bis-Epoxyethyl Derivatives of Stallimycin Modified on the Amidino Moiety” (Med Chem Res, 2004).

In assay [1] the test system is K562. Kind of assay: Induction of erythroid differentiation in Homo sapiens (human) K562 cells assessed as benzidine-positive cells at IC50 after 6 days. Format: functional.
In assay [2] the test system is K562. The assay is described as follows: Induction of erythroid differentiation in Homo sapiens (human) K562 cells assessed as benzidine-positive cells at IC50 after 4 days. Type of assay: functional.
In assay [3] the test system is K562. The assay is described as follows: Cytotoxicity against Homo sapiens (human) K562 cells after 72 hr. Type of assay: functional, cell-based. The following applies: K562, 72 h.
Assay [4] deals with L1210. Kind of assay: Cytotoxicity against Mus musculus (mouse) L1210 cells after 72 hr. Type of assay: functional, cell-based. The settings on record: L1210, 72 h.
In assay [5] the test system is L1210. The assay is described as follows: Ratio of distamycin-A IC50 to compound IC50 for Mus musculus (mouse) L1210 cells. Type of assay: functional.

SMILES strings stand for the structures. A value given as a limit tells only on which side of the number the result lay.

The IC50 is the concentration needed to halve the response being measured. Low readings indicate greater potency in that assay, high ones weaker potency in that assay. As to `Cl.Cl.Cn1cc(NC(=O)c2cc(NC(=O)c3cc(NC=O)cn3C)cn2C)cc1C(=O)NCCC(=N)N`, the Activity amounted to 10% with K562 [1] and 8% in the assay on K562 [2]. Moreover, the IC50 is 10 µM in the assay with K562 [3] and 50 µM with L1210 [4].

With `Cn1cc(NC(=O)c2cc(NC(=O)c3cc(N(CC4CO4)CC4CO4)cn3C)cn2C)cc1C(=O)NCCC(N)=O` (stereo not given), the figures for the Activity in the assay with K562 [1] and with K562 [2] were 16% and 15%, respectively. Further, the “Ratio IC50” value with L1210 [5] turned out to be 4. Besides, the IC50 with K562 [3] was determined as 25 µM; with L1210 [4] it was 35 µM.

With `Cn1cc(NC(=O)c2cc(NC(=O)c3cc(N(CC4CO4)CC4CO4)cn3C)cn2C)cc1C(=O)NCC/C(N)=N/C#N` (stereo not given), the figures for the Activity in the assay with K562 [1] and with K562 [2] were 65.3% and 46.3%, respectively. For the same molecule, the results for the IC50 with K562 [3] and in the assay on L1210 [4] were 1 µM and 6.3 µM, respectively.

Regarding `Cn1cc(NC(=O)c2cc(NC(=O)c3cc(N(CC4CO4)CC4CO4)cn3C)cn2C)cc1C(=O)NCC/C(N)=N/O` (stereo not given), the Activity in the assay on K562 [1] was determined as 13%; in the assay with K562 [2] it was 11%. Also, the IC50 in the assay with K562 [3] came to 12 µM; in the assay on L1210 [4], 18 µM.

On to `Cn1cc(NC(=O)c2cc(NC(=O)c3cc(N)cn3C)cn2C)cc1C(=O)NCCC(N)=O`, for which the IC50 in the assay with K562 [3] is 45 µM; in the assay with L1210 [4], > 50 µM.

`Cn1cc(NC(=O)c2cc(NC(=O)c3cc(N)cn3C)cn2C)cc1C(=O)NCC/C(N)=N/O`: the IC50 in the assay with K562 [3] and in the assay with L1210 [4] was > 50 µM each time.

As for `CNC(=O)CCNC(=O)c1cc(NC(=O)c2cc(NC(=O)c3cc(N(CC4CO4)CC4CO4)cn3C)cn2C)cn1C` (stereo not given), the results for the Activity with K562 [1] and in the assay with K562 [2] were 15% and 12%, respectively. In the assay with L1210 [5], the “Ratio IC50” value is given as 4. In addition, the IC50 with K562 [3] turned out to be 25 µM; with L1210 [4] it was 38 µM.

Regarding `CNC(=O)CCNC(=O)c1cc(NC(=O)c2cc(NC(=O)c3cc(N)cn3C)cn2C)cn1C`, the IC50 in the assay with K562 [3] and in the assay with L1210 [4] was > 50 µM in each case.

As for `Cn1cc(NC(=O)c2cc(NC(=O)c3cc(N)cn3C)cn2C)cc1C(=O)NCC/C(N)=N/C#N`, the half-maximal inhibitory concentration (IC50) in the assay on K562 [3] and in the assay with L1210 [4] was > 50 µM each time.
